Test results reported in ChEMBL document CHEMBL2440025, “Bacterial neuraminidase inhibitory effects of prenylated isoflavones from roots of Flemingia philippinensis” (Bioorg Med Chem, 2013).

Tests used:
[1] = biological target: T1, Sialidase (Clostridium perfringens) (UniProt P10481); assay: (§1) Inhibition of Clostridium perfringens neuraminidase using 4-methylumbelliferyl-alpha-D-N-acetylneuraminic acid sodium salt hydrate as substrate by fluorimetry
T1 sequence (whole entry): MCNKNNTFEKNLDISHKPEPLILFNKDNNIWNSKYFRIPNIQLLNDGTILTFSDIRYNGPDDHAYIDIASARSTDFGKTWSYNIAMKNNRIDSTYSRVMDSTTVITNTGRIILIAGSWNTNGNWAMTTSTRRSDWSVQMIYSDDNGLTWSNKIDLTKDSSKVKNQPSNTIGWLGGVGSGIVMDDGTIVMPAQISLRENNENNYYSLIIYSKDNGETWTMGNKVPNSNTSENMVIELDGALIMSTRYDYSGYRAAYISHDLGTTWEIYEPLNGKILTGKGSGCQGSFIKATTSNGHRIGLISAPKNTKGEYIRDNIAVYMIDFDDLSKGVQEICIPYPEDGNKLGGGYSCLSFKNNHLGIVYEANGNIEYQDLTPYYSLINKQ

Sialidase [2] = biological target: T2, Sialidase (Clostridium perfringens, UniProt P10481); assay: as §1
T2 sequence (P10481 whole entry): T1 sequence (whole entry)

Sialidase [3] = biological target: T2, Sialidase; assay: Non-competitive inhibition of Clostridium perfringens neuraminidase using 4-methylumbelliferyl-alpha-D-N-acetylneuraminic acid sodium salt hydrate as substrate by Dixon plot method

## C=CC(C)(C)C1=Cc2c(c(CC=C(C)C)c3occ(-c4ccc(O)c(O)c4)c(=O)c3c2O)OC1(C)C
[1]
  inhibition: Dose-dependent effect
Sialidase [2]
  IC50: 1.63 µM
Sialidase [3]
  Ki: 1.36 µM

## CC(C)=CCc1c(O)c(CC=C(C)C)c2occ(-c3ccc(O)c(O)c3)c(=O)c2c1O
[1]
  inhibition: Dose-dependent effect
Sialidase [2]
  IC50: 1.07 µM
Sialidase [3]
  Ki: 1.02 µM

## COc1cc(-c2coc3c(CC=C(C)C)c(O)c(CC=C(C)C)c(O)c3c2=O)ccc1O [FLEMINGSIN]
[1]
  inhibition: Dose-dependent effect
Sialidase [2]
  IC50: 3.75 µM
Sialidase [3]
  Ki: 3.68 µM

## CC(C)=CCc1c2c(c(O)c3c(=O)c(-c4ccc(O)c(O)c4)coc13)C=CC(C)(C)O2 [AURICULASIN]
[1]
  inhibition: Dose-dependent effect
Sialidase [2]
  IC50: 0.3 µM
Sialidase [3]
  Ki: 0.13 µM

## CC(C)=CCc1c(O)c(CC=C(C)C)c2occ(-c3ccc(O)cc3)c(=O)c2c1O
[1]
  inhibition: Dose-dependent effect
Sialidase [2]
  IC50: 4.04 µM
Sialidase [3]
  Ki: 4.29 µM

## CC(C)=CCc1cc(-c2coc3cc(O)cc(O)c3c2=O)c(CC=C(C)C)c(O)c1O
[1]
  inhibition: Dose-dependent effect
Sialidase [2]
  IC50: 7.85 µM
Sialidase [3]
  Ki: 7.86 µM

## O=c1c(-c2ccc(O)cc2)coc2cc(O)cc(O)c12 [GENISTEIN]
Sialidase [2]
  IC50: 12 µM

## CC(C)=CCc1c2c(c3occ(-c4ccc(O)cc4)c(=O)c3c1O)C=CC(C)(C)O2 [OSAJIN]
[1]
  inhibition: Dose-dependent effect
Sialidase [2]
  IC50: 3.06 µM
Sialidase [3]
  Ki: 3.21 µM

## CC(C)=CCc1c(-c2coc3cc(O)cc(O)c3c2=O)cc2c(c1O)OC(C)(C)C=C2
[1]
  inhibition: Dose-dependent effect
Sialidase [2]
  IC50: 56.8 µM
Sialidase [3]
  Ki: 53 µM

## C=CC(C)(C)C1=Cc2c(c(CC=C(C)C)c3occ(-c4ccc(O)cc4)c(=O)c3c2O)OC1(C)C
[1]
  inhibition: Dose-dependent effect
Sialidase [2]
  IC50: 7.9 µM
Sialidase [3]
  Ki: 7.27 µM
